The values below come from patent US20040087571A1, “Methods of using CCR1 antagonists as immunomodulatory agents” (Pfizer Inc, priority 2002, published 2004).

In turn, `CC(C)(F)CC[C@H](C[C@H](O)[C@H](Cc1ccccc1)NC(=O)c1cnc2ccccc2n1)C(=O)NCCc1ccncc1` [Example 221, Quinoxaline-2-carboxylic acid [1(S)-benzyl-7-fluoro-2(S)-hydroxy-7-methyl-4(R)-(2-pyridin-4-yl-ethylcarbamoyl)-octyl]-amide] gave a melting point of 78 to 80 °C.
Consider `COc1ccccc1CNC(=O)[C@H](CCC(C)(C)F)C[C@H](O)[C@H](Cc1ccccc1)NC(=O)c1cnc2ccccc2n1` [Example 227, Quinoxaline-2-carboxylic acid [1(S)-benzyl-7-fluoro-2(S)-hydroxy-4(R)-(2-methoxy-benzylcarbamoyl)-7-methyl-octyl]-amide], for which the melting point worked out at 135 °C.
In the case of `CC(C)(F)CC[C@H](C[C@H](O)[C@H](Cc1ccccc1)NC(=O)c1cnc2ccccc2n1)C(=O)NCCc1cccs1` [Example 229, Quinoxaline-2-carboxylic acid [1(S)-benzyl-7-fluoro-2(S)-hydroxy-7-methyl-4(R)-(2-thiophen-2-yl-ethylcarbamoyl)-octyl]-amide] it was 152 to 154 °C; in that of `CC(C)(F)CC[C@H](C[C@H](O)[C@H](Cc1ccccc1)NC(=O)c1cnc2ccccc2n1)C(=O)NCCc1c[nH]c2ccccc12` [Example 230, Quinoxaline-2-carboxylic acid {1(S)-benzyl-7-fluoro-2(S)-hydroxy-4(R)-[2-(1H-indol-3-yl)-ethylcarbamoyl]-7-methyl-octyl}-amide], 107 to 108 °C.
As for `COc1cc(CCNC(=O)[C@H](CCC(C)(C)F)C[C@H](O)[C@H](Cc2ccccc2)NC(=O)c2cnc3ccccc3n2)cc(OC)c1` [Example 232, Quinoxaline-2-carboxylic acid {1(S)-benzyl-4(R)-[2-(3,5-dimethoxy-phenyl)-ethylcarbamoyl]-7-fluoro-2(S)-hydroxy-7-methyl-octyl}-amide], the melting point is 109 to 112 °C.
As for `CC(C)(F)CC[C@H](C[C@H](O)[C@H](Cc1ccccc1)NC(=O)c1cnc2ccccc2n1)C(=O)NCc1ccco1` [Example 234, Quinoxaline-2-carboxylic acid {1(S)-benzyl-7-fluoro-4(R)-[(furan-2-ylmethyl)-carbamoyl]-2(S)-hydroxy-7-methyl-octyl}-amide], the melting point fell in the range of 155.5 to 156.5 °C.
As for `COc1ccc(CNC(=O)[C@H](CCC(C)(C)F)C[C@H](O)[C@H](Cc2ccccc2)NC(=O)c2cnc3ccccc3n2)cc1` [Example 236, Quinoxaline-2-carboxylic acid [1(S)-benzyl-7-fluoro-2(S)-hydroxy-4(R)-(4-methoxy-benzylcarbamoyl)-7-methyl-octyl]-amide], the melting point is 114 to 115 °C.
The value for `CC(C)(F)CC[C@H](C[C@H](O)[C@H](Cc1ccccc1)NC(=O)c1cnc2ccccc2n1)C(=O)N1CCC[C@H]1CO` [Example 239, Quinoxaline-2-carboxylic acid [1(S)-benzyl-7-fluoro-2(S)-hydroxy-4(R)-(2(S)-hydroxymethyl-pyrrolidine-1-carbonyl)-7-methyl-octyl]-amide] was 217 to 219 °C.
Compound `CC(C)(F)CC[C@H](C[C@H](O)[C@H](Cc1ccccc1)NC(=O)c1cnc2ccccc2n1)C(=O)NCC1CCCO1` (stereo partly drawn) [Example 240, Quinoxaline-2-carboxylic acid {1(S)-benzyl-7-fluoro-2(S)-hydroxy-7-methyl-4(R)-[(tetrahydrofuran-2-ylmethyl)-carbamoyl]-octyl}-amide] showed a melting point of 111 to 115 °C.
In turn, `COc1cccc(CNC(=O)[C@H](CCC(C)(C)F)C[C@H](O)[C@H](Cc2ccccc2)NC(=O)c2cnc3ccccc3n2)c1OC` [Example 242, Quinoxaline-2-carboxylic acid [1(S)-benzyl-4(R)-(2,3-dimethoxy-benzylcarbamoyl)-7-fluoro-2(S)-hydroxy-7-methyl-octyl]-amide] yielded a melting point of 99 to 101 °C.

The term melting point denotes the temperature of the solid-liquid transition.
